According to PMC7526550, “Allosteric folding correction of F508del and rare CFTR mutants by elexacaftor-tezacaftor-ivacaftor (Trikafta) combination” (JCI Insight, 2020):

Columns and labels:
CFTR (F508del-NBD1-1S) = CFTR (F508del-NBD1-1S) (Homo sapiens, UniProt P13569, F494N/DEL508-508); parameters: SPR (Biacore T200) steady-state affinity of correctors to immobilized biotinylated CFTR NBD1; details: binder; read-out: ΔF508-NBD1-1S Mean KD
Description: (§1) As described in our previous publication ([21]), binding interactions between biotinylated NBD1 constructs (WT-1S-, F508del-1S-, F508del-3S-NBD1; ~30 kDa each) and corrector compounds were examined with a BIACORE T200 system (GE Healthcare Bio-Sciences AB; Control software v2.0 and Evaluation software v1.0). Briefly, neutravidin (2 mg/mL in water, diluted to 50 μg/mL in 10 mM sodium acetate, pH 5.0; Thermo Fisher Scientific) was amine-coupled to S-series CM5 sensors (~12,000 RU per flow cell) at 25°C using filtered (0.2 μm) and degassed HBS-EP buffer (10 mM HEPES, pH 7.4; 150 mM NaCl; 3 mM EDTA; 0.005% [v/v] Tween-20). After subsequent cooling to 4°C (sample chamber and sensor) and equilibration in PBS running buffer (1× PBS pH 7.4 containing 10% [v/v] glycerol, 2 mM MgCl2, 1 mM ATP, 0.05% [v/v] Tween-20), reference (neutravidin only) and active surfaces (100 μg/mL NBD1 constructs in PBS buffer; capture 5000–8000 RU each) were equilibrated in PBS buffer containing 2% (v/v) DMSO at 10 μL/min. The corrector compounds were titrated over reference and NBD1-immobilized surfaces at 25–50 μL/min (1–2 minutes association plus 2–5 minutes dissociation; 2-fold dilution series for all compounds). Between titration series, the surfaces were regenerated at 50 μL/min using two 30-second pulses of solution I (PBS-DMSO buffer containing 1.0 M NaCl and 0.05% [v/v] Empigen [Anatrace]). […]

CFTR (WT-NBD1-1S) = CFTR (WT-NBD1-1S) (Homo sapiens, UniProt P13569, F494N); experiment: biochemical; parameters: SPR (Biacore T200) steady-state affinity of correctors to immobilized biotinylated CFTR NBD1
Description: as §1

Sequence of CFTR (F508del-NBD1-1S) (P13569 with tags, fused parts or gaps F494N/DEL508-508 limits assumed): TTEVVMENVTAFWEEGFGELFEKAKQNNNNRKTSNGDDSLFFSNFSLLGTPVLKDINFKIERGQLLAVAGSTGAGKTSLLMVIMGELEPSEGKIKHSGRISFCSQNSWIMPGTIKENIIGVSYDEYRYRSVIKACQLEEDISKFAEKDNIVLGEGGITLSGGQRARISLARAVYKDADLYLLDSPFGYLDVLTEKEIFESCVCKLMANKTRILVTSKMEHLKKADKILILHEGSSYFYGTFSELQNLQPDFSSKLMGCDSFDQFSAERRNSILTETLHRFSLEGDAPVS
Sequence of CFTR (WT-NBD1-1S) (P13569 389-678 F494N limits assumed): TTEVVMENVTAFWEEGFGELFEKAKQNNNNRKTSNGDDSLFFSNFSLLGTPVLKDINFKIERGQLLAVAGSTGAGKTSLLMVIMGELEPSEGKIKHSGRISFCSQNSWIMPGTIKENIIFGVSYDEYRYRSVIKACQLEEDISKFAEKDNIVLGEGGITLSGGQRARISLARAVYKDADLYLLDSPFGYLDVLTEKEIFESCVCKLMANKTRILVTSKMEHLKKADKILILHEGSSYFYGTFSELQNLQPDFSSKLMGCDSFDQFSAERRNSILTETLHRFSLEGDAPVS

| SMILES | Kd (CFTR (F508del-NBD1-1S)) | Kd (CFTR (WT-NBD1-1S)) |
| --- | --- | --- |
| CC(C)(CO)c1cc2cc(NC(=O)C3(c4ccc5c(c4)OC(F)(F)O5)CC3)c(F)cc2n1C[C@@H](O)CO [VX-661, tezacaftor] | > 200 µM | > 200 µM |
| Cc1nn(C)cc1S(=O)(=O)NC(=O)c1ccc(-n2ccc(OCC(C)(C)C(F)(F)F)n2)nc1N1C[C@@H](C)CC1(C)C [compound 20, VX-445] | 82 µM | 76 µM |
